Reference: patent US20250145625A1, “PYRAZOLOPYRIMIDINE DERIVATIVE AND ANTICANCER PHARMACEUTICAL COMPOSITION CONTAINING SAME AS ACTIVE INGREDIENT” (KOREA RESEARCH INSTITUTE OF CHEMICAL TECHNOLOGY, priority 2021, published 2025)
Like-named read-outs stand apart in the source and are kept apart here.

Assays:
[1] = tested on: MDA-MB-231 tumor in nude mice; experiment: Drug efficacy on nude mice employing MDA-MB-231; type: in vivo; conditions: MDA-MB-231, oral 6 mg/kg daily for 4 weeks
Procedure: 5-Week-old female nude mice were subcutaneously injected with 5×10^6 MDA-MB-231 cells into the flank. When the tumor volume reached approximately 50 mm^3, the mice were divided into groups, each containing 5 animals, which were than orally administered a drug. The dosage of the drug was 6 mg/kg and administered daily for 4 weeks.

[2] = tested on: MDA-MB-231 triple negative breast cancer cell line; experiment: Cell cycle distribution of co-treatment with paclitaxel in MDA-MB-231 cells; type: cell-based; conditions: co-treated with 0.001 μM paclitaxel
Procedure: To determine the change in cell cycle distribution when a compound represented by Chemical Formula 1 according to the present invention and paclitaxel were co-applied to MDA-MB-231 cells, the following test was conducted.
MDA-MB-231 triple negative breast cancer cell line purchased from ATCC was inoculated into each well of a 6-well plate at 100,000 cells. Thereafter, paclitaxel was added at concentrations of 0 μM and 0.001 μM and an example compound of the present invention was added at concentrations of 0 μM, 0.03 μM, or 0.1 μM, and the cells were cultured in a cell incubator at 37° C. for 2 days. After 2 days, the cells were fixed with 70% ethanol, and added and into 200 μL of Muse Cell Cycle reagent in a light-shielded state and cultured for 30 minutes. Then, the cell cycle distribution was analyzed using a Muse Cell Analyzer (manufacturer: Merck, Millipore), and the results are shown in FIG. 6.

[3] = tested on: MDA-MB-231 triple negative breast cancer cell line; experiment: Cytotoxicity in TTK-expressed MDA-MB-231 cells; type: cell-based; conditions: Homo sapiens, MDA-MB-231, 120 h, 5 days
Procedure: To determine the cytotoxicity of a compound represented by Chemical Formula 1 according to the present invention to MDA-MB-231 cells, the following test was conducted.
MDA-MB-231 triple negative breast cancer cell line purchased from ATCC was inoculated into each well of a 96-well plate at a volume of 90 μL containing 2,000 cells. Thereafter, an example compound of the present invention was added to respective wells at concentrations of 10 μM, 3 μM, 1 μM, 0.3 μM, 0.1 μM, and 0 μM, and the cells were cultured in a cell incubator at 37° C. for 5 days. Five days later, 10 μL of Cyto X solution (manufacturer: LPS Solution) was added to each of the wells, and the absorbance was measured at 450 nm using an Epoch microplate spectrophotometer (manufacturer: BioTek Instruments Inc.) according to the product's user guide. For cytotoxicity, the IC50 value for cytotoxicity of each compound was calculated by quantifying the number of cells using the measured value.

[4] = tested on: HCT116 colon cancer cell line; experiment: Cytotoxicity in TTK-expressed HCT116 cells; type: cell-based; conditions: Homo sapiens, HCT-116, 120 h, 5 days
Procedure: To determine the cytotoxicity of a compound represented by Chemical Formula 1 according to the present invention to HCT116 cells, the following test was conducted.
HCT116 colon cancer cell line purchased from ATCC was inoculated into each well of a 96-well plate at a volume of 90 μL containing 2,000 cells. Thereafter, an example compound of the present invention was added to respective wells at concentrations of […], 3 μM, 1 μM, 0.3 μM, 0.1 μM, and 0 μM, and the cells were cultured in a cell incubator at 37° C. for 5 days. After 5 days, the number of cells was measured by CCK8 test method, and the cytotoxicity was determined by calculating the IC50 value for cytotoxicity of each compound.

ALK(h) = ALK(h) (Homo sapiens (Human), UniProt Q9UM73); experiment: Kinase activity inhibitory ability (panel); type: biochemical; conditions: compound at 500 nM
Chain of ALK(h) (Q9UM73 19-1620): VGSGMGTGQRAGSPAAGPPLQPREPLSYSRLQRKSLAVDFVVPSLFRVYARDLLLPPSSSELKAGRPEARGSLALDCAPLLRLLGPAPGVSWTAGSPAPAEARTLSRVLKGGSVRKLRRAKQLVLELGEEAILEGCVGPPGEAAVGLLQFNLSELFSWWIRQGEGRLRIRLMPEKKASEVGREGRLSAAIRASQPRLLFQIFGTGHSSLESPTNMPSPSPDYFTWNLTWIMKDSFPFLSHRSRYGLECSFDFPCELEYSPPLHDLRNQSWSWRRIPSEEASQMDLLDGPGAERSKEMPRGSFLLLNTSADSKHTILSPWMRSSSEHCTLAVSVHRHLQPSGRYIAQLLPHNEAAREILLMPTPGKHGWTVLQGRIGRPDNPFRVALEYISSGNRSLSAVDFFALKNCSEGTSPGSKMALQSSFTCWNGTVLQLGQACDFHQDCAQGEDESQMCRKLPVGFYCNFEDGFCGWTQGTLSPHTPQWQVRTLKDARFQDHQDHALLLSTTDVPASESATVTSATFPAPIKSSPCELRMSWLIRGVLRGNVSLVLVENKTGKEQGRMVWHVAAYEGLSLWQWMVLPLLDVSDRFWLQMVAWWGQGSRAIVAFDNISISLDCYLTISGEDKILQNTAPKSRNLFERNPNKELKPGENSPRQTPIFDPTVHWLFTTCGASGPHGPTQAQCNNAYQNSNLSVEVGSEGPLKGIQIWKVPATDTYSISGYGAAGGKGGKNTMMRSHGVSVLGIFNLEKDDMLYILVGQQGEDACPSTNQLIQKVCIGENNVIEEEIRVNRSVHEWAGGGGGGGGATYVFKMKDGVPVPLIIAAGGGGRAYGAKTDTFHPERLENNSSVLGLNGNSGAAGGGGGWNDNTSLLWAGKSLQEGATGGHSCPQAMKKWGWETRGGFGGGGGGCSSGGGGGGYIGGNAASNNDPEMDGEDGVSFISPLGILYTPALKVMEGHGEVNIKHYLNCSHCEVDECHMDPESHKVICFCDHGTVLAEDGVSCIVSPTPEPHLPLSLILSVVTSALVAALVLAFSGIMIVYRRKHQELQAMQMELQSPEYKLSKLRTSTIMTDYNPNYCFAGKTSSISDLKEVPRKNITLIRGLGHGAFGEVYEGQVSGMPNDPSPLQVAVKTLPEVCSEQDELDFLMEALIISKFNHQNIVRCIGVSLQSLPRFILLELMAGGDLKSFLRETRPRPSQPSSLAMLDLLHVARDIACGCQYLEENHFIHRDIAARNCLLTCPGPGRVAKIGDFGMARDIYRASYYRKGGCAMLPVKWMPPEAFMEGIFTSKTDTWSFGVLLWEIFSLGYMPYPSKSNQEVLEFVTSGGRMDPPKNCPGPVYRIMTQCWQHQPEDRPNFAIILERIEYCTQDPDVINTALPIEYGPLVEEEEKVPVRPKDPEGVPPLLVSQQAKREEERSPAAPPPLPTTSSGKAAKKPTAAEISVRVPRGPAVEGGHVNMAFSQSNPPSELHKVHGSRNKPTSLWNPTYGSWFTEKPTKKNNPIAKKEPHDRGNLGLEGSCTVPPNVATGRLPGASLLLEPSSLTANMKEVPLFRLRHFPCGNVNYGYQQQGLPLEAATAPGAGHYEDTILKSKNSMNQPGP

TTK(h) = TTK(h) (Homo sapiens (Human), UniProt P33981); experiment: Kinase activity inhibitory ability (panel); type: biochemical
Chain of TTK(h) (P33981 whole entry): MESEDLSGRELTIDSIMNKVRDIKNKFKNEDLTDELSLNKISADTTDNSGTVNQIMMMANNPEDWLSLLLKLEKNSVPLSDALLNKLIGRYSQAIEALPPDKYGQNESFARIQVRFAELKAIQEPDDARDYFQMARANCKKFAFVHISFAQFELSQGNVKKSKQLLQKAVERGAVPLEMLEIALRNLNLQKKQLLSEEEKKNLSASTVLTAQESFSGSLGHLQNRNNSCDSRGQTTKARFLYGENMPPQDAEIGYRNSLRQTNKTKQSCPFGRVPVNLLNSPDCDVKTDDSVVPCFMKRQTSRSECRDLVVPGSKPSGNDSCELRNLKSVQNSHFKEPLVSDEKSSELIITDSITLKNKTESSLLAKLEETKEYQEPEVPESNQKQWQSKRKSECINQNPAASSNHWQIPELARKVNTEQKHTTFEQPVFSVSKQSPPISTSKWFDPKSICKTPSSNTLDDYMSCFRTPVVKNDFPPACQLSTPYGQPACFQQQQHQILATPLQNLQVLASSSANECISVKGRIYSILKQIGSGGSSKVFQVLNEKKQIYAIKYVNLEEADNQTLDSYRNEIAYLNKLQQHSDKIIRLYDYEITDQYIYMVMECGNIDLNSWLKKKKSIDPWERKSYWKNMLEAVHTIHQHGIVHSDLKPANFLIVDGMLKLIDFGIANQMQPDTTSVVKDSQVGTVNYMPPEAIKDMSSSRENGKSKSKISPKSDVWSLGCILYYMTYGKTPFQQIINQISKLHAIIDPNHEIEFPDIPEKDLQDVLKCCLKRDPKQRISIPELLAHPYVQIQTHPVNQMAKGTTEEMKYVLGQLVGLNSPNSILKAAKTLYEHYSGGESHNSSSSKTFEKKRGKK

[5] = target: recombinant human TTK protein (Homo sapiens (Human), UniProt P33981); experiment: Evaluation of TTK activity inhibitory ability (scintillation counting); type: biochemical;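 further: reaction stopped with 0.5% phosphoric acid, spotted on P30 filter, TTK activity counted by scintillation, uninhibited no-compound wells taken as 100% control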
Chain of recombinant human TTK protein (P33981 whole entry): as above
Procedure: To determine the ability of a compound represented by Chemical Formula 1 according to the present invention to inhibit TTK activity, the following experiment was conducted.
After that, the reaction was terminated by adding phosphoric acid to a concentration of 0.5%, and 10 of the reaction solution was dropped onto a P30 filter. […] The activity of TTK was measured through scintillation counting. The activity value from the group with no compound was set as 100% of control, and the degree of TTK inhibition by the compound was calculated.

IRR(h) = IRR(h) (Homo sapiens (Human), UniProt P14616); experiment: Kinase activity inhibitory ability (panel); type: biochemical; conditions: compound at 500 nM
Chain of IRR(h) (P14616 27-1297): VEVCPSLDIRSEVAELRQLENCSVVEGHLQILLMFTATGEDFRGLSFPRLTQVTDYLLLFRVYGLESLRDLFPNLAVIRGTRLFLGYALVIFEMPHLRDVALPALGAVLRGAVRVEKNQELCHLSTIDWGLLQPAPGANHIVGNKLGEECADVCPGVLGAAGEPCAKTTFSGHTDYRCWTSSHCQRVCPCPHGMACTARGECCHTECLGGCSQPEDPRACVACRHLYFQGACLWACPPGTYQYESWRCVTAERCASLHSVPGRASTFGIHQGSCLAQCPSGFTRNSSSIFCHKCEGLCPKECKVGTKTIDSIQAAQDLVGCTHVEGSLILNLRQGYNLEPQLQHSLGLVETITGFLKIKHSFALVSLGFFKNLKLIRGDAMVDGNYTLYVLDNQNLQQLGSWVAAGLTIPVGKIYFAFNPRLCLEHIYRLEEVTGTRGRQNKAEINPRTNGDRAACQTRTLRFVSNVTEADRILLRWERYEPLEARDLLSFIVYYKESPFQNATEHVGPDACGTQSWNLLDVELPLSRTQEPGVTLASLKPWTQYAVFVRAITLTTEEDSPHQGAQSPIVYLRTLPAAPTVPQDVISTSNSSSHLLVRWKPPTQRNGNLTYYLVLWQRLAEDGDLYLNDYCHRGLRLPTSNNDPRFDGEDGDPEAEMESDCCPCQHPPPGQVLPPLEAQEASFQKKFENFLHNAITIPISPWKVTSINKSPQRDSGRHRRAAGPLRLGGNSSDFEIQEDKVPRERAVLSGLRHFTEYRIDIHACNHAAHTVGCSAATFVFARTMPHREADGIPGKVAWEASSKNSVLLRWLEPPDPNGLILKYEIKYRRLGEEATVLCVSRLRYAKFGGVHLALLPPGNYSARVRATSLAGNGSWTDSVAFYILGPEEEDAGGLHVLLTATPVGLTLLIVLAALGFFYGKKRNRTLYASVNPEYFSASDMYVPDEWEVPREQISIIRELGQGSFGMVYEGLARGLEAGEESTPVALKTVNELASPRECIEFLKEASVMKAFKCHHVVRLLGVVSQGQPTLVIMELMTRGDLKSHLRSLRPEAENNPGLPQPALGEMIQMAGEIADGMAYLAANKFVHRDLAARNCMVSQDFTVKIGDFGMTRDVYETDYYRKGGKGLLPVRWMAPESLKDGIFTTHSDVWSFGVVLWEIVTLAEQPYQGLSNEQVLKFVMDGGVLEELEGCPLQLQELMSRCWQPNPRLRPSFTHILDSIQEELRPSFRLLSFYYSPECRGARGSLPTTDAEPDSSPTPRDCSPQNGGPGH

LTK(h) = LTK(h) (Homo sapiens (Human), UniProt P29376); experiment: Kinase activity inhibitory ability (panel); type: biochemical; conditions: compound at 500 nM
IR(h), activated = IR(h), activated (Homo sapiens (Human), UniProt P06213); experiment: Kinase activity inhibitory ability (panel); type: biochemical; conditions: compound at 500 nM
Chain of IR(h), activated (P06213 28-1382): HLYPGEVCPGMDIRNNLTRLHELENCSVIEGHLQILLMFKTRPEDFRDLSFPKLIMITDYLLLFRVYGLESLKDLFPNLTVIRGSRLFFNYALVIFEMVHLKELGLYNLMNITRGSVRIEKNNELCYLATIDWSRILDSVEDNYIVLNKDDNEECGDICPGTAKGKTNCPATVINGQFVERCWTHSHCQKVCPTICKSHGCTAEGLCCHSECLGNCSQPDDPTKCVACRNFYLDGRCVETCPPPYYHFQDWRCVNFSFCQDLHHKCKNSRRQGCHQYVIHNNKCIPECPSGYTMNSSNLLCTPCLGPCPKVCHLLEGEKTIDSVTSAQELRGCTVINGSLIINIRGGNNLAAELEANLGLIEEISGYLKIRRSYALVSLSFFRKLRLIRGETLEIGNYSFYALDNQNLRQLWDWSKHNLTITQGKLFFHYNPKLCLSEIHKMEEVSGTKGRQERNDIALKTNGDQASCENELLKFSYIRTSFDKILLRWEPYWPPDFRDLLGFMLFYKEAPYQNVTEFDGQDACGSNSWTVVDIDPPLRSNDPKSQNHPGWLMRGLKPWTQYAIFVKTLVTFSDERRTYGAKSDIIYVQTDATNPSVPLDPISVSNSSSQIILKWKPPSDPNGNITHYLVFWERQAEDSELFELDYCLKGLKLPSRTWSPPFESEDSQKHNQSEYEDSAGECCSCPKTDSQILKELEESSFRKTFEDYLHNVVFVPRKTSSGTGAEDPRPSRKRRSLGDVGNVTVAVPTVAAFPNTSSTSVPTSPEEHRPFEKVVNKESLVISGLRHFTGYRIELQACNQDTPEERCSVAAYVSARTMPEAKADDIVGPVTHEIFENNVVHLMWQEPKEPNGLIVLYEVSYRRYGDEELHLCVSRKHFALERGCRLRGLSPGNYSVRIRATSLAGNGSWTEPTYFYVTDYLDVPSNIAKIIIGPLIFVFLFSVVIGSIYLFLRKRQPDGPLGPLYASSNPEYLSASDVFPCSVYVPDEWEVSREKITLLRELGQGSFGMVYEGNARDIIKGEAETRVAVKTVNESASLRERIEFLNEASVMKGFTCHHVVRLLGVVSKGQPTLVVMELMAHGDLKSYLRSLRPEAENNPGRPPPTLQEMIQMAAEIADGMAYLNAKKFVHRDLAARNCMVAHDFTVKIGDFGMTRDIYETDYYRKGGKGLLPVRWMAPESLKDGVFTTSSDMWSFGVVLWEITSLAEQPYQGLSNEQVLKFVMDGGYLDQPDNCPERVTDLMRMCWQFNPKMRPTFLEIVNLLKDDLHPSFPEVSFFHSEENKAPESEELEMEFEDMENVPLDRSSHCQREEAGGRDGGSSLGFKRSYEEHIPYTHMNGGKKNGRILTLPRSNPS

[6] = TTK inhibitory activity, read-out: IC50

IC50 [5, 6]	SMILES	IC50 [3]	IC50 [4]	also measured
–	Cc1cc(-c2cnn3c(NC[C@H]4C[C@@](C)(O)C4)cc(Oc4cccnc4)nc23)ccc1C(=O)NC1CC1 [Comparative Example 1, CFI-402257, reference compound]	< 150 nM	< 150 nM	tumor volume over time [1]: reduced; change in cell distribution on co-treatment [2]: enhanced changes in cell distribution
–	COc1ccc(Cn2nc(-c3cn[nH]c3)c3c(NC4CCCCC4)nc(Nc4ccc(N5CCOCC5)cc4OC)nc32)cc1 [Compound 8-8, N^4-cyclohexyl-N^6-(2-methoxy-4-morpholinophenyl)-1-(4-methoxybenzyl)-3-(1H-pyrazol-4-yl)-1H-pyrazolo[3,4-d]pyrimidine-4,6-diamine]	< 150 nM	< 150 nM	activity at 0.5 µM (ALK(h)): 2%; inhibition at 0.5 µM (ALK(h)): > 90%; TTK activity inhibition (in words) (TTK(h); 500 nM): completely inhibited TTK activity; activity at 0.5 µM (TTK(h); TTK(h), compound at 500 nM): -7%; inhibition at 0.5 µM (TTK(h); TTK(h), compound at 500 nM): > 90%; IC50 [5]: 0.03 to 0.1 µM; activity at 0.5 µM (IRR(h)): 7%; inhibition at 0.5 µM (IRR(h)): > 90%; activity at 0.5 µM (LTK(h)): 2%; inhibition at 0.5 µM (LTK(h)): > 90%; activity at 0.5 µM (IR(h), activated): 8%; inhibition at 0.5 µM (IR(h), activated): > 90%
0.03 to 0.1 µM	COc1cc(N2CCOCC2)ccc1Nc1nc(NC2CCCCC2)c2c(-c3n[nH]c(=O)o3)n[nH]c2n1 [Compound 14-3, 5-(4-(cyclohexylamino)-6-((2-methoxy-4-morpholinophenyl)amino)-1H-pyrazolo[3,4-d]pyrimidin-3-yl)-1,3,4-oxadiazol-2(3H)-one]	150 to 500 nM	< 150 nM	–
< 0.03 µM	COc1cc(N2CCOCC2)ccc1Nc1nc(NC2CCCCC2)c2c(-c3cnco3)n[nH]c2n1 [Compound 18-1, N^4-cyclohexyl-N^6-(2-methoxy-4-morpholinophenyl)-3-(oxazol-5-yl)-1H-pyrazolo[3,4-d]pyrimidine-4,6-diamine]	< 150 nM	< 150 nM	–
0.03 to 0.1 µM	COc1cc(N2CCOCC2)ccc1Nc1nc(NC2CCCCC2)c2c(-c3cnc[nH]3)n[nH]c2n1 [Compound 18-2, N^4-cyclohexyl-3-(1H-imidazol-5-yl)-N^6-(2-methoxy-4-morpholinophenyl)-1H-pyrazolo[3,4-d]pyrimidine-4,6-diamine]	500 to 1000 nM	500 to 1000 nM	–
< 0.03 µM	COc1cc(N2CCOCC2)ccc1Nc1nc(NC2CCCCC2)c2c(-c3cn(C)nn3)n[nH]c2n1 [Compound 21-2, N^4-cyclohexyl-N^6-(2-methoxy-4-morpholinophenyl)-3-(1-methyl-1H-1,2,3-triazol-4-yl)-1H-pyrazolo[3,4-d]pyrimidine-4,6-diamine]	< 150 nM	< 150 nM	–
0.03 to 0.1 µM	COc1cc(N2CCOCC2)ccc1Nc1nc(NC2CCOCC2)c2c(-c3cn(C)nn3)n[nH]c2n1 [Compound 21-3, N^6-(2-methoxy-4-morpholinophenyl)-3-(1-methyl-1H-1,2,3-triazol-4-yl)-N^4-(tetrahydro-2H-pyran-4-yl)-1H-pyrazolo[3,4-d]pyrimidine-4,6-diamine]	150 to 500 nM	< 150 nM	–
0.03 to 0.1 µM	CC(C)Oc1cc(N2CCOCC2)ccc1Nc1nc(NC2CCCCC2)c2c(-c3cnn(C)c3)n[nH]c2n1 [Compound 26-1, N^4-cyclohexyl-N^6-(2-isopropoxy-4-morpholinophenyl)-3-(1-methyl-1H-pyrazol-4-yl)-1H-pyrazolo[3,4-d]pyrimidine-4,6-diamine]	150 to 500 nM	500 to 1000 nM	–
< 0.03 µM	COc1cc(N2CCOCC2)ccc1Nc1nc(Nc2ccccc2)c2c(-c3cnn(C)c3)n[nH]c2n1 [Compound 26-2, N^6-(2-methoxy-4-morpholinophenyl)-3-(1-methyl-1H-pyrazol-4-yl)-N^4-phenyl-1H-pyrazolo[3,4-d]pyrimidine-4,6-diamine]	> 1000 nM	> 1000 nM	–
< 0.03 µM	COc1cc(N2CCOCC2)ccc1Nc1nc(NC2CCOCC2)c2c(-c3cnco3)n[nH]c2n1 [Compound 33-1, N^6-(2-methoxy-4-morpholinophenyl)-3-(oxazol-5-yl)-N^4-(tetrahydro-2H-pyran-4-yl)-1H-pyrazolo[3,4-d]pyrimidine-4,6-diamine]	< 150 nM	< 150 nM	–
< 0.03 µM	CNC(=O)c1ccc(Nc2nc(NC3CCOCC3)c3c(-c4cnco4)n[nH]c3n2)c(OC)c1 [Compound 33-2, 3-methoxy-N-methyl-4-((3-(oxazol-5-yl)-4-((tetrahydro-2H-pyran-4-yl)amino)-1H-pyrazolo[3,4-d]pyrimidin-6-yl)amino)benzamide]	150 to 500 nM	500 to 1000 nM	–
< 0.03 µM	COc1cc(-c2nncn2C)ccc1Nc1nc(NC2CCOCC2)c2c(-c3cnco3)n[nH]c2n1 [Compound 33-3, N^6-(2-methoxy-4-(4-methyl-4H-1,2,4-triazol-3-yl)phenyl)-3-(oxazol-5-yl)-N^4-(tetrahydro-2H-pyran-4-yl)-1H-pyrazolo[3,4-d]pyrimidine-4,6-diamine]	500 to 1000 nM	> 1000 nM	–
